Columns and labels:
SNV = format: cell-based, Sin Nombre virus
in vitro = details: African green monkey
[1] = tested on: SNV^R18 on DAF-functionalized beads; format: binding
[2] = tested on: SNV-induced cAMP production in CHO-A24 cells; format: cell-based
integrin αIIbβ3 = integrin αIIbβ3 (Homo sapiens, UniProt P05106+P08514); format: cell-based
Sin Nombre virus (SNV) = format: cell-based; details: 10 µM
Hantaan virus (HTN) = format: cell-based; details: 10 µM
[3] = tested on: SNV^F18 bound to Tanoue B cells; details: read-out: IC50, competition binding vs SNV^F18 bound to Tanoue B cells

Chain of integrin αIIbβ3 (P08514 32-887 limits assumed): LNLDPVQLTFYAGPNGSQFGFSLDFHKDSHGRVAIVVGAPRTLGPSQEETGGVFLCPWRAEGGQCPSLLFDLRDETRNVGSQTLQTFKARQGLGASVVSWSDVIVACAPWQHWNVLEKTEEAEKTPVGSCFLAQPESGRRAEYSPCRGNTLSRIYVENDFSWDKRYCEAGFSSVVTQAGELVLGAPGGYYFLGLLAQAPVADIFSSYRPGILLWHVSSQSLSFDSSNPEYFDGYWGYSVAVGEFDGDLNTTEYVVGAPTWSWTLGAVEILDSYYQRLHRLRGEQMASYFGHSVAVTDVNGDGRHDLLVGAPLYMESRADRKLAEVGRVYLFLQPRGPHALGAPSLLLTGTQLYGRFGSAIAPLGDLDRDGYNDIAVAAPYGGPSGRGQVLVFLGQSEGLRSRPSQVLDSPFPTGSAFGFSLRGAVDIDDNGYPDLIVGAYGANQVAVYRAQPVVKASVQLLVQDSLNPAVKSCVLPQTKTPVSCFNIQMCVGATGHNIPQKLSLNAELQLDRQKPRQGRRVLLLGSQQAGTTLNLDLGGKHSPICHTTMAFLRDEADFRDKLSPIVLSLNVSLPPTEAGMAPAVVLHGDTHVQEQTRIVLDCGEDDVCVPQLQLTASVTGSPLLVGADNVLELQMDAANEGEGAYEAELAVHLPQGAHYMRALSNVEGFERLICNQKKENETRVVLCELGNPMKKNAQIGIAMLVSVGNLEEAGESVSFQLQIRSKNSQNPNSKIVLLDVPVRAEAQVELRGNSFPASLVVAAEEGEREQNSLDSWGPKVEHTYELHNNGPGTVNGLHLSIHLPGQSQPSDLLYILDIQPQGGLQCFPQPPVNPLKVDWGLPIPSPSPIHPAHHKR
Chain of integrin αIIbβ3 (P08514 891-1039 partner limits assumed): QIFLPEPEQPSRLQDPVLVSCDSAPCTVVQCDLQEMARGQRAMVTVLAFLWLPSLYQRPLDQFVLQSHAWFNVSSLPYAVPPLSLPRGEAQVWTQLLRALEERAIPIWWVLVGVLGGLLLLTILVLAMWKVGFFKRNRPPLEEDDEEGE
Chain of integrin αIIbβ3 (P05106 27-788): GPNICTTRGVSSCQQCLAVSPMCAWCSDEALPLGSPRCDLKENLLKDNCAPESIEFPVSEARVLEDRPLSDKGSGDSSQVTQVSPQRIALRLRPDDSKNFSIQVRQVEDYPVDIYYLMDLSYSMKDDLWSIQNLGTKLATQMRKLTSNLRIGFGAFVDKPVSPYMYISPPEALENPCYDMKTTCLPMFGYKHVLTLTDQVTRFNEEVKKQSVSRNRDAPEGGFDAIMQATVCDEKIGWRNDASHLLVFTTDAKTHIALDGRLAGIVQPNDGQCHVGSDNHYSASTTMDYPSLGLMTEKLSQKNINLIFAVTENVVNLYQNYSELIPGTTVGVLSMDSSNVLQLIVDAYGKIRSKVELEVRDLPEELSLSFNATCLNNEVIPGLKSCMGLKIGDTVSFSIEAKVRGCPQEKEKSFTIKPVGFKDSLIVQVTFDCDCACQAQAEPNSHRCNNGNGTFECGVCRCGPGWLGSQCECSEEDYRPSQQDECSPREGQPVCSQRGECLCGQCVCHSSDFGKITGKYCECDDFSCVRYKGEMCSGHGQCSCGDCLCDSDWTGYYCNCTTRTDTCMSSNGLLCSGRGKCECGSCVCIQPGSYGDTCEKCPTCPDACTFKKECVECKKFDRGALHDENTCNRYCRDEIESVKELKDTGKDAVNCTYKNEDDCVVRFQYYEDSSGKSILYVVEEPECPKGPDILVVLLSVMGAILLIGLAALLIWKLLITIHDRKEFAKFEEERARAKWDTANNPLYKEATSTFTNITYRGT

With `O=C(Nc1cc(C(=O)Nc2ccc(S(=O)(=O)O)cc2S(=O)(=O)O)cc(C(=O)Nc2ccc(S(=O)(=O)O)cc2S(=O)(=O)O)c1)Nc1cc(C(=O)Nc2ccc(S(=O)(=O)O)cc2S(=O)(=O)O)cc(C(=O)Nc2ccc(S(=O)(=O)O)cc2S(=O)(=O)O)c1` [NF449] the “reduction of viral N-protein relative to vehicle-treated cells” value (SNV) was > 80%.
Compound `COC(=O)Nc1nc2ccc(Sc3ccccc3)cc2[nH]1` [fenbendazole] has a viability (in vitro) of ~70%.
In the case of `Cc1cc2c(C(C)C)c(O)c(O)c(C=O)c2c(O)c1-c1c(C)cc2c(C(C)C)c(O)c(O)c(C=O)c2c1O` [gossypol], the “koff, drop in bead fluorescence” value [1] is reported as ~ 0.25 and the viability (in vitro) is reported as ~30%.
`O=C(Nc1ccc([N+](=O)[O-])cc1Cl)c1cc(Cl)ccc1O` [niclosamide] showed a viability (in vitro) of ~50%.
For `Cc1c(Cl)cccc1Nc1ccccc1C(=O)O` [tolfenamic acid], the “koff, drop in bead fluorescence” value [1] was ~ 0.25.
With GRGDSP the “effect on SNV-stimulated cAMP” value [2] was “did not affect SNV-stimulated cAMP response” and the “effect on SNV-induced PAC-1 staining” value (integrin αIIbβ3) was “inhibited PAC1 staining”.
In the case of antimycin, the “% inhibition of infection by SNV” value (Sin Nombre virus (SNV)) is reported as ≥ 80%, the “% inhibition of infection by HTN” value (Hantaan virus (HTN)) is reported as ≥ 80% and the “koff, drop in bead fluorescence” value [1] is reported as ~ 0.25. The IC50 [3] was 10 µM, the “effect on SNV-stimulated cAMP” value [2] was “inhibited stimulation of cAMP” and the “effect on SNV-induced PAC-1 staining” value (integrin αIIbβ3) was “inhibited PAC-1 staining”. For the same compound, the “cytopathic effects after 24 hours” value (Vero E6 cells) was “minimal cytopathic effects”.
In the case of tocopherol, the “cytopathic effects after 24 hours” value (Vero E6 cells) is reported as “minimal cytopathic effects”.

— PMC6469676 (SLAS discovery : advancing life sciences R & D, 2018)
